In patent US20210161997A1, “TREATING DISEASES VIA TARGETED MODULATION OF GENE SIGNALING NETWORKS” (Camp4 Therapeutics Corporation, priority 2018, published 2021):

What was measured:
Type in all cases: cell-based
JAG1 = test: RNA-seq of JAG1 expression in compound-treated primary human hepatocytes; settings: for JAG1 Fold Change (Log2): primary human hepatocytes; for Significant modulation of JAG1 (in words): summary of Table 6
Protocol: (§1) Human hepatocytes were obtained from two donors from Massachusetts General Hospital, namely MGH54 and MGH63, and one donor from Lonza, namely HUM4111B. Cryopreserved hepatocytes were cultured in plating media for 16 hours, transferred to maintenance media for 4 hours. Cultured on serum-free media for 2 hours, then a compound was added. The hepatocytes were maintained on the serum-free media for 16 hours prior to gene expression analysis. Primary human hepatocytes were stored in the vapor phase of a liquid nitrogen freezer (about -130° C.). Human hepatocytes cultured as described above were plated in 24-well format, adding 375,000 cells per well in a volume of 500 ul plating medium. Four hours before treatment, cells were washed with PBS and the medium was changed to either: fresh maintenance medium (complete) or modified maintenance medium. Compound stocks were prepared at 1000× final concentration and added in a 2-step dilution to the medium to reduce risk of a compound precipitating out of solution when added to the cells, and to ensure reasonable pipetting volumes. […] The plate was mixed by carefully swirling and after all wells were treated and returned to the incubator overnight. If desired, separate plates/wells were treated with vehicle-only controls and/or positive controls. If using multi-well plates, controls were included on each plate. After about 18 hours, cells were harvested for further analysis, e.g., ChIP-seq, RNA-seq, ATAC-seq, etc. This protocol is a modified version of the following protocols: MagMAX mirVana Total RNA Isolation Kit User Guide (Applied Biosystems #MAN0011131 Rev B.0), NEBNext Poly(A) mRNA Magnetic Isolation Module ([…]), and NEBNext Ultra Directional RNA Library Prep Kit for Illumina ([…]) (New England Biosystems #E74901). […] Two hundred μl of Lysis Binding Mix was used per well of the multiwell plate containing adherent cells (usually a 24-well plate). For mRNA isolation and library prep, the NEBNext Poly(A) mRNA Magnetic Isolation Module and Directional Prep kit was used. RNA isolated from cells above was quantified, and prepared in […] of each sample in 50 μl of nuclease-free water. This protocol may be run in microfuge tubes or in a 96-well plate. […] Genomic alignments were converted to transcriptome alignments based on reference transcript annotations from the Human GENCODE Gene Set release 24 (Harrow et al., Genome Res. […] Standard QC were applied (read integrity, mapping statistics, library complexity, fragment bias) to remove unsatisfactory samples. Differential gene expression was computed using the negative binomial model implemented by DESeq2 version 1.16.1 (Love et al., Genome Biol. (2014) 15(12):550). […] RNA-seq signals were also normalized by read depth and visualized using the UCSC browser. To identify small molecules that modulate target gene expression, primary human hepatocytes were prepared as a monoculture, and at least one small molecule compound was applied to the cells. RNA-seq was performed to determine the effects of the compounds on the expression of the target genes in hepatocytes. Fold change was calculated by dividing the level of expression in the cell system that had been perturbed by the level of expression in an unperturbed system.

NOTCH2 = test: RNA-seq of NOTCH2 expression in compound-treated primary human hepatocytes; settings: for NOTCH2 Fold Change (Log2): primary human hepatocytes; for Significant modulation of NOTCH2 (in words): summary of Table 6
Protocol: as §1

LECT2 = test: RNA-seq of LECT2 expression in compound-treated primary human hepatocytes
Protocol: (§2) Human hepatocytes were obtained from two donors from Massachusetts General Hospital, namely MGH54 and MGH63, and one donor from Lonza, namely HUM4111B. Cryopreserved hepatocytes were cultured in plating media for 16 hours, transferred to maintenance media for 4 hours. Cultured on serum-free media for 2 hours, then a compound was added. The hepatocytes were maintained on the serum-free media for 16 hours prior to gene expression analysis. Primary human hepatocytes were stored in the vapor phase of a liquid nitrogen freezer (about −130° C.).
(§3) Human hepatocytes cultured as described above were plated in 24-well format, adding 375,000 cells per well in a volume of 500 ul plating medium. Four hours before treatment, cells were washed with PBS and the medium was changed to either: fresh maintenance medium (complete) or modified maintenance medium.
(§4) Compound stocks were prepared at 1000× final concentration and added in a 2-step dilution to the medium to reduce risk of a compound precipitating out of solution when added to the cells, and to ensure reasonable pipetting volumes. One at a time, each compound was first diluted 10-fold in warm (about 37° C.) modified maintenance medium (initial dilution=ID), mixed by vortexing, and the ID was diluted 100-fold into the cell culture (e.g. 5.1 ul into 1 well of a 24-well plate containing 0.5 mL medium). The plate was mixed by carefully swirling and after all wells were treated and returned to the incubator overnight. If desired, separate plates/wells were treated with vehicle-only controls and/or positive controls. If using multi-well plates, controls were included on each plate. After about 18 hours, cells were harvested for further analysis, e.g., ChIP-seq, RNA-seq, ATAC-seq, etc.
(§5) This protocol is a modified version of the following protocols: MagMAX mirVana Total RNA Isolation Kit User Guide (Applied Biosystems #MAN0011131 Rev B.0), NEBNext Poly(A) mRNA Magnetic Isolation Module (E7490), and NEBNext Ultra Directional RNA Library Prep Kit for Illumina (E7420) (New England Biosystems #E74901).
(§6) The MagMAX mirVana kit instructions (the section titled “Isolate RNA from cells” on pages 14-17) were used for isolation of total RNA from cells in culture. Two hundred μl of Lysis Binding Mix was used per well of the multiwell plate containing adherent cells (usually a 24-well plate).
(§7) For mRNA isolation and library prep, the NEBNext Poly(A) mRNA Magnetic Isolation Module and Directional Prep kit was used. RNA isolated from cells above was quantified, and prepared in […] of each sample in 50 μl of nuclease-free water. This protocol may be run in microfuge tubes or in a 96-well plate.
(§8) Standard QC were applied (read integrity, mapping statistics, library complexity, fragment bias) to remove unsatisfactory samples. […] Log 2 fold change and significance values were computed using PME count data (with replicates explicitly modeled versus pan-experiment controls), median ratio normalized, using maximum likelihood estimation rather than maximum a posteriori, and disabling the use of Cook's distance cutoff when determining acceptable adjusted p-values. […] RNA-seq signals were also normalized by read depth and visualized using the UCSC browser.
(§9) To identify small molecules that modulate target gene expression, primary human hepatocytes were prepared as a monoculture, and at least one small molecule compound was applied to the cells.
(§10) RNA-seq was performed to determine the effects of the compounds on the expression of the target genes in hepatocytes. Fold change was calculated by dividing the level of expression in the cell system that had been perturbed by the level of expression in an unperturbed system. Changes in expression having a p-value ≤0.05 were considered significant.
(§11) Significance was defined as an FPKM ≥1, a log 2(fold change) ≥0.5, and a q-value of ≤0.05 for all targets except for CPOX.

FN1 = test: RNA-seq of FN1 expression in compound-treated primary human hepatocytes; settings: perturbed vs unperturbed, significance FPKM ≥1, log 2(fold change) ≥0.5, q-value ≤0.05
Protocol: as §2, §3, §4, §5, §6, §7
All pass filter reads from each sample were mapped against the human genome (assembly GRCh38/GCA_000001405.15 “no alt” analysis set merged with hs38d1/GCA_000786075.2) using two pass mapping via STAR version 2.5.3a (alignment parameters alignIntronMin=20; alignIntronMax=1000000; outFilterMismatchNmax=999; outFilterMismatchNoverLmax=0.05; outFilterType=BySJout; outFilterMultimapNmax=20; alignSJoverhangMin=8; alignSJDBoverhangMin=1; alignMatesGapMax=1000000) (Dobin et al., Bioinformatics (2012) 29(1):15-21). Genomic alignments were converted to transcriptome alignments based on reference transcript annotations from the Human GENCODE Gene Set release 24 (Harrow et al., Genome Res. (2012) 22(9): 1760-1774). Using unique and multimapped transcriptomic alignments, gene-level abundance estimates were computed using RSEM version 1.3.0 (Li and Dewey, BMC Bioinformatics (2011) 12:323) in a strand-aware manner, and including confidence interval sampling calculations, to arrive at posterior mean estimates (PME) of abundances (counts and normalized FPKM—fragments per kilobase of exon per million mapped fragments) from the underlying Bayesian model. Standard QC were applied (read integrity, mapping statistics, library complexity, fragment bias) to remove unsatisfactory samples.

ANGPTL3 = test: RNA-seq of ANGPTL3 expression in compound-treated primary human hepatocytes; settings: additional compounds (Table 13), linear fold change
Summary of the method: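 Cryopreserved primary human hepatocytes from three donors, plated at 375,000 cells/well, switched to complete or modified maintenance medium, then dosed with compound (stocks at 1000× final) for about 18 h. Poly(A) mRNA was sequenced directionally, mapped to GRCh38 with STAR, and gene-level abundance (counts, FPKM) estimated with RSEM against GENCODE 24.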

UGT1A1 = test: RNA-seq of UGT1A1 expression in compound-treated primary human hepatocytes
Protocol: as §2, §3, §4, §5, §6, §7, §8, §9, §10, §11

740 Y-P
JAG1 Fold Change (Log2) (JAG1): 0 Log2 | NOTCH2 Fold Change (Log2) (NOTCH2): 0.66 Log2 | Significant modulation of NOTCH2 (in words) (NOTCH2): significantly modulate only NOTCH2 | LECT2 Fold Change (Log2) (LECT2): −0.62 Log2

CN1CCN(S(=O)(=O)c2ccc(-c3cnc(N)c(C(=O)Nc4cccnc4)n3)cc2)CC1 [AZD2858]
FN1 Fold Change (Log2) (FN1): −1.23 Log2 | ANGPTL3-LINEAR FOLD CHANGE (ANGPTL3): 0.3186

CN(C)C/C=C/C(=O)Nc1cc2c(Nc3ccc(F)c(Cl)c3)ncnc2cc1O[C@H]1CCOC1 [Afatinib]
FN1 Fold Change (Log2) (FN1): −0.98 Log2 | LECT2 Fold Change (Log2) (LECT2): −0.75 Log2 | ANGPTL3-LINEAR FOLD CHANGE (ANGPTL3): 0.3078

CCOC(=O)C1=C(COCCN)NC(C)=C(C(=O)OC)C1c1ccccc1Cl (stereo not shown) [Amlodipine Besylate]
FN1 Fold Change (Log2) (FN1): −1.22 Log2 | LECT2 Fold Change (Log2) (LECT2): −0.55 Log2 | ANGPTL3-LINEAR FOLD CHANGE (ANGPTL3): 0.3035

CCN1CCN(c2ccc(Nc3cc(N(C)C(=O)Nc4c(Cl)c(OC)cc(OC)c4Cl)ncn3)cc2)CC1 [BGJ398]
FN1 Fold Change (Log2) (FN1): −1.36 Log2 | ANGPTL3-LINEAR FOLD CHANGE (ANGPTL3): 0.3368

COc1cc2c(Oc3ccc4[nH]c(C)cc4c3F)ncnc2cc1OCCCN1CCCC1 [Cediranib]
FN1 Fold Change (Log2) (FN1): −0.79 Log2 | ANGPTL3-LINEAR FOLD CHANGE (ANGPTL3): 0.4323

CCN(CC)CCN(Cc1ccc(-c2ccc(C(F)(F)F)cc2)cc1)C(=O)Cn1c(SCc2ccc(F)cc2)nc(=O)c2c1CCC2 [Darapladib]
LECT2 Fold Change (Log2) (LECT2): −0.55 Log2 | ANGPTL3-LINEAR FOLD CHANGE (ANGPTL3): 0.4569

c1ccc2c(-c3cnn4cc(-c5ccc(N6CCNCC6)cc5)cnc34)ccnc2c1 [LDN193189]
FN1 Fold Change (Log2) (FN1): −0.87 Log2 | JAG1 Fold Change (Log2) (JAG1): 2.07 Log2 | Significant modulation of JAG1 (in words) (JAG1): significantly modulate only JAG1 | NOTCH2 Fold Change (Log2) (NOTCH2): 0 Log2 | ANGPTL3-LINEAR FOLD CHANGE (ANGPTL3): 0.4204

Cc1[nH]c(/C=C2\C(=O)Nc3ccc(S(=O)(=O)Cc4c(Cl)cccc4Cl)cc32)c(C)c1C(=O)N1CCC[C@@H]1CN1CCCC1 [PHA-665752]
FN1 Fold Change (Log2) (FN1): −1.14 Log2

CC(C)c1nc(CN(C)C(=O)N[C@H](C(=O)N[C@@H](Cc2ccccc2)C[C@H](O)[C@H](Cc2ccccc2)NC(=O)OCc2cncs2)C(C)C)cs1 [Ritonavir]
LECT2 Fold Change (Log2) (LECT2): −1.00 Log2 | UGT1A1 Fold Change (Log2) (UGT1A1): 0.63 Log2

CNC1CCC(N(Cc2cccc(-c3ccncc3)c2)C(=O)c2sc3ccccc3c2Cl)CC1 (stereo not shown) [Smoothened Agonist]
FN1 Fold Change (Log2) (FN1): −1.95 Log2 | ANGPTL3-LINEAR FOLD CHANGE (ANGPTL3): 0.3035

CN1CCN(CCCN2c3ccccc3Sc3ccc(C(F)(F)F)cc32)CC1 [TFP]
LECT2 Fold Change (Log2) (LECT2): −0.91 Log2 | ANGPTL3-LINEAR FOLD CHANGE (ANGPTL3): 0.2832

COc1cc2nccc(Oc3ccc(NC(=O)Nc4cc(C)on4)c(Cl)c3)c2cc1OC [Tivozanib]
FN1 Fold Change (Log2) (FN1): −0.8 Log2 | ANGPTL3-LINEAR FOLD CHANGE (ANGPTL3): 0.4204

CCOC(=O)N1c2ccc(C(F)(F)F)cc2[C@@H](N(Cc2cc(C(F)(F)F)cc(C(F)(F)F)c2)C(=O)OC)C[C@H]1CC [Torcetrapib]
JAG1 Fold Change (Log2) (JAG1): 0.68 Log2 | Significant modulation of JAG1 (in words) (JAG1): significantly modulate both JAG1 and NOTCH2 | NOTCH2 Fold Change (Log2) (NOTCH2): 0.76 Log2 | Significant modulation of NOTCH2 (in words) (NOTCH2): significantly modulate both JAG1 and NOTCH2 | LECT2 Fold Change (Log2) (LECT2): −0.86 Log2

COc1nc(C)cnc1NS(=O)(=O)c1cccnc1-c1ccc(-c2nnco2)cc1 [Zibotentan]
JAG1 Fold Change (Log2) (JAG1): 0 Log2 | NOTCH2 Fold Change (Log2) (NOTCH2): 0.94 Log2 | Significant modulation of NOTCH2 (in words) (NOTCH2): significantly modulate only NOTCH2 | LECT2 Fold Change (Log2) (LECT2): −0.83 Log2

C[C@]12CC[C@@H]3c4ccc(O)cc4CC[C@H]3[C@@H]1CC[C@@H]2O [b-Estradiol]
LECT2 Fold Change (Log2) (LECT2): −0.90 Log2

COc1nc(N)nc2c1ncn2[C@@H]1O[C@H](COP(=O)(N[C@@H](C)C(=O)OCC(C)(C)C)Oc2cccc3ccccc23)[C@@H](O)[C@@]1(C)O (stereo partly shown) [bms-986094 (inx-189)]
FN1 Fold Change (Log2) (FN1): −1.00 Log2
